From patent US7947293B2, “Aqueous pharmaceutical formulation” (Arpida AG, priority 2008, dated 2011)
Read-outs that look alike come from different tables or passages of the source.

How the values were obtained:
Format in all cases: physicochemical
[1] = Solubility of iclaprim methanesulfonic acid salt in aqueous/organic solutions, HPLC of supernatant; conditions: for solubility at 24 h: thermodynamic from solid
Procedure: A fixed amount of iclaprim mesylate was suspended in the different aqueous/organic solutions. The suspension was stirred at room temperature for 24 hours. The supernatant of the solutions were analyzed by HPLC to determine the amount of iclaprim in the solution.

[2] = Stress heating of standard formulation (simulated long term storage), HPLC; conditions: 20 mg/mL in 30% propylene glycol in water, normal atmosphere
Procedure: Within the scope of the present invention various standard aqueous formulations of 5-[(2RS)-2-cyclopropyl-7,8-dimethoxy-2H-1-benzopyran-5-ylmethyl]-pyrimidine-2,4-diamine and its acid addition salts were tested for long term stability. For example, vials of 5-[(2RS)-2-cyclopropyl-7,8-dimethoxy-2H-1-benzopyran-5-ylmethyl]-pyrimidine-2,4-diamine methanesulfonic acid salt were prepared in 30% propylene glycol in water at a concentration of iclaprim of 20 mg/mL. In order to examine the stability of the above standard formulations a model system was used to simulate long term storage conditions. In this model system, the solutions to be tested are stress heated at 40° C. and 70° C. for at least 12 days. The analysis of the solutions after completion of the heating step were made by means of methods well known to those skilled in the art such as, for example, HPLC measurements. Vials of 5-[(2RS)-2-cyclopropyl-7,8-dimethoxy-2H-1-benzopyran-5-ylmethyl]-pyrimidine-2,4-diamine methanesulfonic acid salt (20 mg/mL) were prepared in 30% propylene glycol in Millipore water under normal atmosphere. In order to examine the stability of the above formulation a model experiment was developed wherein the solutions to be tested are stress heated. It is well know in the art that by heating a test sample at a temperature higher than room temperature (about 20° C.) such as between 40° C. and 70° C. for a prolonged period of time, long storage conditions can be simulated. The analysis of the solutions after completion of the heating step was made by means of visual examinations and HPLC measurements.

[3] = Stability of iclaprim under simulated sterilization conditions at pH<3.5, HPLC; conditions: 30% propylene glycol or 10% glycofurol in water
Procedure: Further stability tests of the above standard formulations were performed, wherein the pH was adjusted with citric acid below 3.5 under simulated sterilization conditions, such as 100° C. for 2 h. Vials of 5-[(2RS)-2-cyclopropyl-7,8-dimethoxy-2H-1-benzopyran-5-ylmethyl]-pyrimidine-2,4-diamine methanesulfonic acid salt were prepared in 30% propylene glycol or 10% glycofurol in water. The pH of the so obtained solution was adjusted to pH 3 with 1M citric acid or to pH 1 with 1N hydrochloric acid, and the vials were heated in order to simulate a sterilization process. The analysis of the solutions after completion of the heating step was performed by means of visual examinations and HPLC measurements.

Row | Structure (SMILES) | solubility at 24 h ([1]; 10% propylene glycol in saline 0.9%, aqueous with cosolvent or surfactant or cyclodextrin, 10% (saline 0.9%) propylene glycol, room temperature, 24 hours, read-out: Solubility calculated form HPLC measurements) [µg/mL] | solubility at 24 h ([1]; aqueous with cosolvent or surfactant or cyclodextrin, 10% aqueous propylene glycol, room temperature, 24 hours, read-out: Solubility calculated form HPLC measurements) [µg/mL] | solubility at 24 h ([1]; saline or isotonic, Saline 0.9%, room temperature, 24 hours, read-out: Solubility calculated form HPLC measurements) [µg/mL] | solubility at 24 h ([1]; saline solution with reduced propylene glycol, aqueous with cosolvent or surfactant or cyclodextrin, in saline solution, reduced propylene glycol, pH above 4.0, read-out: maximal solubility achieved) [µg/mL] | concentration at which precipitation was observed ([1]; saline solutions, e.g. 10% propylene glycol saline solution) | solubility at 24 h ([1]; water, room temperature, 24 hours, read-out: Solubility calculated form HPLC measurements) [µg/mL] | % iclaprim ([2]; 12 days, 40° C.) [%] | % iclaprim ([2]; 12 days, 70° C.) [%] | % iclaprim ([2]; 45 days, about 20° C.) [%] | % iclaprim ([2]; fresh solution, 0 min, about 20° C.) [%] | % iclaprim ([3]; 1 h, 37° C., pH 1) [%] | % iclaprim ([3]; 2 h, 100° C., pH 1) [%] | % iclaprim ([3]; 2 h, 100° C., pH 3) [%] | % iclaprim ([3]; 3 h, 37° C., pH 1) [%] | % iclaprim ([3]; 3 h, 37° C., pH 3) [%] | % iclaprim ([3]; fresh solution, 0 min, about 20° C., pH 4.5 (reference, no pH adjustment)) [%]
1 | COc1cc(Cc2cnc(N)nc2N)c2c(c1OC)OC(C1CC1)C=C2.CS(=O)(=O)O (racemic) [iclaprim methanesulfonic acid salt, 5-[(2RS)-2-cyclopropyl-7,8-dimethoxy-2H-1-benzopyran-5-ylmethyl]-pyrimidine-2,4-diamine methanesulfonic acid salt] | 7500 | 27800 | 1200 | 7500 | above 7.5 mg/mL | 18100 |  |  |  |  |  |  |  |  |  | 
2 | COc1cc(Cc2cnc(N)nc2N)c2c(c1OC)OC(C1CC1)C=C2 (racemic) [iclaprim, 5-[(2RS)-2-cyclopropyl-7,8-dimethoxy-2H-1-benzopyran-5-ylmethyl]-pyrimidine-2,4-diamine] |  |  |  |  |  |  | 97.0 | 90.0 | 97.5 | 99.1 | 99.0 | 60.0 | 86.5 | 96.3 | 99.0 | 99.1
